From ChEMBL document CHEMBL1123199, “Synthesis and structure-activity relationships of naftifine-related allylamine antimycotics” (1986)
≈ marks a conversion by molar mass, not a printed value.

Assays:
[1] = test system: Aspergillus fumigatus; assay: Antifungal activity measured against Aspergillus fumigatus; format: functional
[2] = test system: Candida parapsilosis; assay: Antifungal activity against Candida parapsilosis.; format: functional; conditions: Lodderomyces parapsilosis
[3] = test system: Epidermophyton floccosum; assay: Antifungal activity against Epidermophyton floccosum.; format: functional
[4] = test system: Microsporum canis; assay: Antifungal activity against Microsporum canis; format: functional
[5] = test system: Sporothrix schenckii; assay: Antifungal activity measured against Sporothrix schenck ii.; format: functional
[6] = test system: Trichophyton benhamiae; assay: ~ Antifungal activity was measured against Trichophyton mentagrophytes.; format: functional, Arthroderma benhamiae
[7] = test system: Aspergillus fumigatus; assay: Antifungal activity was measured against Aspergillus fumigatus; format: functional
[8] = test system: Trichophyton benhamiae; assay: Antifungal activity measured against Trichophyton mentagrophytes; format: functional, Arthroderma benhamiae

MIC [1]	MIC [2]	MIC [3]	MIC [4]	MIC [5]	MIC [6]	MIC [7]	MIC [8]	Structure (SMILES)
> 100 µg/mL	> 100 µg/mL	3.1 µg/mL (≈ 9.63 µM)	< 1.6 µg/mL	25 µg/mL (≈ 77.7 µM)	< 1.6 µg/mL			CN(C/C=C/c1ccccc1Cl)Cc1cccc2ccccc12
	> 100 µg/mL		50 µg/mL (≈ 173 µM)	> 100 µg/mL		> 100 µg/mL	12.5 µg/mL (≈ 43.2 µM)	ON(C/C=C/c1ccccc1)Cc1cccc2ccccc12
